Where two headings read alike, the source gives them in different places. Where only a bound is given, the exact number is not on record here.

The term EC50 denotes the concentration giving half of the maximal effect.

Format in all cases: cell-based
The subject of one test is DENV2 replicon. Nature of the test: DENV-2 Huh-7 Rep EC50 (replicon luminescence). Put shortly: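 Huh-7 cells carrying a DENV2 replicon, 5,000 cells/well, were incubated with dosed compounds for 48 h at 37° C. EnduRen live-cell substrate was added 1.5 h before luminescence reading. EC50 came from dose-response against DMSO-only wells.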
A further test deals with HRV16. Description: HRV16 HeLa EC50 (cytopathic effect in H1-HeLa cells). To be noted: read-out: HRV16 HeLa EC50. In a few lines: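 H1-HeLa cells seeded one day before, given 3-fold serial compound dilutions in triplicate just prior to infection with pre-titrated virus. Incubated 96 h at 33 °C/5% CO2; protection from cytopathic effect read as viability by CellTiter-Glo luminescence, normalised to infected untreated (0%) and uninfected (100%) controls.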
A general note: Protection from cytopathic effect is a common read-out in antiviral testing.

For the next test, the system named is RSV strain A2. Nature of the test: microbe, parasite or virus in culture. To be noted: read-out: RSV HEp-2 EC50. Put shortly:
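Cytopathic-effect protection assay: HEp-2 cells (50,000/mL) infected with pre-titered RSV A2 onto 3-fold serial compound dilutions, incubated 4 days at 37° C. Cell viability read by CellTiter-Glo luminescence; percent inhibition derived against 0% and 100% virus-inhibition controls.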

Another test has as its system RSV A2. Nature of the test: RSV NHBE EC50 (RSV A2 antiviral assay in NHBE cells). To be noted: read-out: RSV NHBE EC50. Put shortly:
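Primary bronchial epithelial cells attach overnight, receive 3-fold serial compound dilutions, and are infected with RSV A2 at 1×10^4.5 tissue culture infectious doses/mL. Protection from virus-induced cell death is scored by luminescent viability assay after 4 days.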

Setting [1] is: Dengue virus, DENV2, Huh-7, 48 h, read-out: DENV-2 REP Huh7 EC50.
The mark [2] stands for this setting: 96 h, Table 3, H1-HeLa cells, 96 h.
Setting [3] is: human respiratory syncytial virus, HEp-2, 96 h, Table 3, HEp-2 cells, RSV A2, 4 days.
Setting [4] is: human respiratory syncytial virus, NHBE, 96 h, Table 3, NHBE cells, RSV A2, 4 days.
Setting [5] is: Dengue virus, DENV2, Huh-7, 48 h, read-out: DENV-2 REP Huh7 EC50, Table 3, Huh-7 DENV2 replicon cells, 48 hours.
Where [6] appears, read: Table 3, Huh-7 DENV2 replicon cells, 48 hours, read-out: DENV-2 REP Huh7 EC50.
Where [7] appears, read: Table 3, HEp-2 cells, RSV A2, 4 days.
[8] abbreviates: Table 3, NHBE cells, RSV A2, 4 days.

On to `CC(C)C(=O)O[C@H]1[C@H](c2ccc3c(N)ncnn23)O[C@](C#N)(COP(=O)(N[C@@H](C)C(=O)OC2COC2)Oc2ccccc2)[C@H]1OC(=O)C(C)C` (stereo partly drawn) [Example 184, (2R,3S,4S,5S)-5-(4-aminopyrrolo[2,1-f][1,2,4]triazin-7-yl)-2-cyano-2-((((((S)-1-(oxetan-3-yloxy)-1-oxopropan-2-yl)amino)(phenoxy)phosphoryl)oxy)methyl) tetrahydrofuran-3,4-diyl bis(2-methylpropanoate)], for which the concentration for a half-maximal effect (EC50) is 5960 nM in the test with DENV2 replicon (setting [1]); 57 nM with HRV16 (setting [2]); 57 nM in the test on HRV16 (HeLa, Table 5 comparative activity, 2',3'-OH vs -OC(O)iPr); 79 nM with RSV strain A2 (setting [3]); 79 nM with RSV strain A2 (human respiratory syncytial virus, HEp-2, Table 5 comparative activity, 2',3'-OH vs -OC(O)iPr); 13 nM with RSV A2 (setting [4]). Further, in the test on RSV A2 (human respiratory syncytial virus, NHBE, Table 5 comparative activity, 2',3'-OH vs -OC(O)iPr), the EC50 came out at 13 nM.
In the case of `CCCCOC(=O)[C@H](C)NP(=O)(N[C@@H](C)C(=O)OCCCC)OC[C@@]1(C#N)O[C@@H](c2ccc3c(N)ncnn23)[C@H](OC(=O)CC)[C@@H]1OC(=O)CC` [Example 193], the EC50 came out at 30000 nM with DENV2 replicon (setting [5]), 1620 nM in the test on HRV16 (setting [2]), 610 nM with RSV strain A2 (setting [3]) and 125 nM in the test on RSV A2 (setting [4]).
For `CCCCC(=O)O[C@H]1[C@H](c2ccc3c(N)ncnn23)O[C@](C#N)(COP(=O)(N[C@@H](C)C(=O)OCC)N[C@@H](C)C(=O)OCC)[C@H]1OC(=O)CCCC` [Example 194, (2R,3S,4S,5S)-5-(4-Aminopyrrolo[2,1-f][1,2,4]triazin-7-yl)-2-(((bis(((S)-1-ethoxy-1-oxopropan-2-yl)amino)phosphoryl)oxy)methyl)-2-cyanotetrahydrofuran-3,4-diyl dipentanoate], in that order: 30900 nM, 2090 nM, 391 nM and 529 nM.
On to `CCC(=O)O[C@H]1[C@H](c2ccc3c(N)ncnn23)O[C@](C#N)(COP(=O)(N[C@@H](C)C(=O)OC2CCC2)Oc2ccccc2)[C@H]1OC(=O)CC` (stereo partly drawn) [Example 195, (2R,3S,4S,5S)-5-(4-aminopyrrolo[2,1-f][1,2,4]triazin-7-yl)-2-cyano-2-((((((S)-1-cyclobutoxy-1-oxopropan-2-yl)amino)(phenoxy)phosphoryl)oxy)methyl) tetrahydrofuran-3,4-diyl dipropionate], for which the EC50 was determined as 6440 nM with DENV2 replicon (setting [6]); 126 nM in the test with HRV16 (Table 3, H1-HeLa cells, 96 h); 23 nM with RSV strain A2 (setting [7]); 59 nM in the test on RSV A2 (setting [8]).
For the compound `CCC(=O)O[C@H]1[C@H](c2ccc3c(N)ncnn23)O[C@](C#N)(CO[P@](=O)(N[C@@H](C)C(=O)OC2CCC2)Oc2ccccc2)[C@H]1OC(=O)CC` [Example 196, (2R,3S,4S,5S)-5-(4-aminopyrrolo[2,1-f][1,2,4]triazin-7-yl)-2-cyano-2-((((R)-(((S)-1-cyclobutoxy-1-oxopropan-2-yl)amino)(phenoxy)phosphoryl)oxy)methyl) tetrahydrofuran-3,4-diyl dipropionate], the EC50 was found to be 1960 nM in the test with DENV2 replicon (setting [6]); 96 nM in the test on HRV16 (Table 3, H1-HeLa cells, 96 h); 42 nM with RSV strain A2 (setting [7]); 27 nM in the test on RSV A2 (setting [8]).
`CC(C)C(=O)O[C@H]1[C@H](c2ccc3c(N)ncnn23)O[C@](C#N)(COP(=O)(N[C@@H](C)C(=O)OC2CCC2)Oc2ccccc2)[C@H]1OC(=O)C(C)C` (stereo partly drawn) [Example 197, (2R,3S,4S,5S)-5-(4-aminopyrrolo[2,1-f][1,2,4]triazin-7-yl)-2-cyano-2-((((((S)-1-cyclobutoxy-1-oxopropan-2-yl)amino)(phenoxy)phosphoryl)oxy)methyl) tetrahydrofuran-3,4-diyl bis(2-methylpropanoate)]: the EC50 came to 4460 nM in the test on DENV2 replicon (setting [6]); 94 nM with HRV16 (Table 3, H1-HeLa cells, 96 h); 28 nM in the test with RSV strain A2 (setting [7]); 33 nM with RSV A2 (setting [8]).
Regarding `CC(=O)O[C@H]1[C@H](c2ccc3c(N)ncnn23)O[C@](C#N)(COP(=O)(N[C@@H](C)C(=O)OC2CCC2)Oc2ccccc2)[C@H]1OC(C)=O` (stereo partly drawn) [Example 198, (2R,3S,4S,5S)-5-(4-aminopyrrolo[2,1-f][1,2,4]triazin-7-yl)-2-cyano-2-((((((S)-1-cyclobutoxy-1-oxopropan-2-yl)amino)(phenoxy)phosphoryl)oxy)methyl) tetrahydrofuran-3,4-diyl diacetate], the EC50 in the test with DENV2 replicon (setting [6]) amounted to 6620 nM; with HRV16 (Table 3, H1-HeLa cells, 96 h), 319 nM; with RSV strain A2 (setting [7]), 48 nM; in the test on RSV A2 (setting [8]), 37 nM.
As to `CCC(=O)O[C@H]1[C@H](c2ccc3c(N)ncnn23)O[C@](C#N)(COP(=O)(N[C@@H](C)C(=O)OC)N[C@@H](C)C(=O)OC)[C@H]1OC(=O)CC` [Example 199], the EC50 was over 50000 nM in the test with DENV2 replicon (setting [5]), 19500 nM in the test on HRV16 (setting [2]), 4110 nM in the test with RSV strain A2 (setting [3]) and 235 nM in the test with RSV A2 (setting [4]).
`CC(C)C(=O)O[C@H]1[C@H](c2ccc3c(N)ncnn23)O[C@](C#N)(COP(=O)(N[C@@H](C)C(=O)OCC2COC2)Oc2ccccc2)[C@H]1OC(=O)C(C)C` (stereo partly drawn) [Example 200, (2R,3S,4S,5S)-5-(4-aminopyrrolo[2,1-f][1,2,4]triazin-7-yl)-2-cyano-2-((((((S)-1-(oxetan-3-ylmethoxy)-1-oxopropan-2-yl)amino)(phenoxy)phosphoryl)oxy)methyl) tetrahydrofuran-3,4-diyl bis(2-methylpropanoate)]: the EC50 amounted to 2180 nM with DENV2 replicon (setting [1]), 120 nM with HRV16 (setting [2]), 58 nM in the test on RSV strain A2 (setting [3]) and 12 nM with RSV A2 (setting [4]).
For `CCC(=O)O[C@H]1[C@H](c2ccc3c(N)ncnn23)O[C@](C#N)(COP(=O)(N[C@@H](C)C(=O)OCC2COC2)Oc2ccccc2)[C@H]1OC(=O)CC` (stereo partly drawn) [Example 203, (2R,3S,4S,5S)-5-(4-aminopyrrolo[2,1-f][1,2,4]triazin-7-yl)-2-cyano-2-((((((S)-1-(oxetan-3-ylmethoxy)-1-oxopropan-2-yl)amino)(phenoxy)phosphoryl)oxy)methyl) tetrahydrofuran-3,4-diyl dipropionate], the EC50 with DENV2 replicon (setting [1]) was determined as 9500 nM; in the test on HRV16 (setting [2]), 359 nM; in the test on RSV strain A2 (setting [3]), 95 nM; in the test with RSV A2 (setting [4]), 38 nM.
With `C[C@H](NP(=O)(OC[C@@]1(C#N)O[C@@H](c2ccc3c(N)ncnn23)[C@H](OC(=O)C(C)(C)C)[C@@H]1OC(=O)C(C)(C)C)Oc1ccccc1)C(=O)OC1COC1` (stereo partly drawn) [Example 206, (2R,3S,4S,5S)-5-(4-aminopyrrolo[2,1-f][1,2,4]triazin-7-yl)-2-cyano-2-((((((S)-1-(oxetan-3-yloxy)-1-oxopropan-2-yl)amino)(phenoxy)phosphoryl)oxy)methyl) tetrahydrofuran-3,4-diyl bis(2,2-dimethylpropanoate)], the EC50 in the test on DENV2 replicon (setting [1]) worked out at 7590 nM; with HRV16 (setting [2]) it was 308 nM; in the test on RSV strain A2 (setting [3]), 338 nM; in the test with RSV A2 (setting [4]), 36 nM.
On to `CCCCC(=O)O[C@H]1[C@H](c2ccc3c(N)ncnn23)O[C@](C#N)(COP(=O)(N[C@@H](C)C(=O)OCC)N[C@@H](C)C(=O)OCC)[C@H]1OC(=O)CCCC` [Example 211, (2R,3S,4S,5S)-5-(4-Aminopyrrolo[2,1-f][1,2,4]triazin-7-yl)-2-(((bis(((S)-1-ethoxy-1-oxopropan-2-yl)amino)phosphoryl)oxy)methyl)-2-cyanotetrahydrofuran-3,4-diyl dipentanoate], for which the EC50 with DENV2 replicon (read-out: DENV-2 REP Huh7 EC50, Table 3, Huh-7 DENV2 replicon cells, 48 hours) was determined as 28900 nM; in the test with HRV16 (Table 3, H1-HeLa cells, 96 h), 1970 nM; in the test on RSV strain A2 (setting [7]), 653 nM; with RSV A2 (setting [8]) it was 946 nM.
`CCCC(=O)O[C@H]1[C@H](c2ccc3c(N)ncnn23)O[C@](C#N)(COP(=O)(N[C@@H](C)C(=O)OC)N[C@@H](C)C(=O)OC)[C@H]1OC(=O)CCC` [Example 212, (2R,3S,4S,5S)-5-(4-Aminopyrrolo[2,1-f][1,2,4]triazin-7-yl)-2-(((bis(((S)-1-methoxy-1-oxopropan-2-yl)amino)phosphoryl)oxy)methyl)-2-cyanotetrahydrofuran-3,4-diyl dibutyrate]: the EC50 is over 71400 nM in the test with DENV2 replicon (setting [5]), 6120 nM in the test on HRV16 (setting [2]), 1180 nM with RSV strain A2 (setting [3]) and 451 nM with RSV A2 (setting [4]).
For `CSCCOP(=O)(N[C@@H](C)C(=O)OC(C)C)OC[C@@]1(C#N)O[C@@H](c2ccc3c(N)ncnn23)[C@H](OC(=O)C(C)C)[C@@H]1OC(=O)C(C)C` (stereo partly drawn) [Example 213, (2R,3S,4S,5S)-5-(4-aminopyrrolo[2,1-f][1,2,4]triazin-7-yl)-2-cyano-2-((((((S)-1-isopropoxy-1-oxopropan-2-yl)amino)(2-(methylthio)ethoxy)phosphoryl)oxy)methyl) tetrahydrofuran-3,4-diyl bis(2-methylpropanoate)], in that order: 23000 nM, 13100 nM, 11800 nM and 2250 nM.

The values above are taken from US12264173B2 (GILEAD SCIENCES, INC., priority 2020, dated 2025).
